Assays:
in vivo = settings: mouse
[1] = test system: P388 lymphocytic leukemia; assay: Drug combination efficacy study in advanced systemic P388 lymphocytic leukemia model; assay type: in vivo, mice
Description: (§1) Female B6D2F1 mice (Charles River Laboratories, Raleigh, N.C.) were used in these studies. All procedures were performed in accordance with protocols approved by the SB Institutional Animal Care and Use Committee, and met or exceeded the standards of the American Association for the Accreditation of Laboratory Animal Care (AAALAC), the United States Department of Health and Human Services and all local and federal animal welfare laws.
(§2) MAP and PCR tested P388 lymphocytic leukemia cell lines obtained originally from the National Cancer Institute Repository at Frederick Cancer Research Center, Frederick, Md., were used in these studies. P388 lymphocytic leukemia were maintained by serial i.p. transplantation in syngeneic B6D2F1 mice. […] Protocols for screening chemical agents and natural products against animal tumors and other biological systems. Cancer Chemother. […] All tumor tissues are presently in cryopreservation within the department of Molecular and Cellular Oncology.
(§3) For efficacy studies, P388 lymphocytic leukemia were harvested aseptically from the peritoneal cavity of donor mice, pooled, diluted with Earle's Balanced Salt Solution and trypan blue, and counted using a hemocytometer. An inoculum of 0.2 ml (5×10^6/ml) was implanted i.v. in the lateral tail vein of female BDF1 mice using a 25 gauge needle. The tumor inoculum was tested for bacterial contamination as determined by a 24-hr incubation in thioglycollate broth.
(§4) Each experiment included two groups of untreated tumor-bearing controls, and a titration of tumor cells in untreated animals (ranging from 10^1 to 10^5 so that drug-induced cell kill (NCK) could be calculated. Drug treatment was initiated 48 hrs after tumor implantation. Specific endpoints calculated from this model are % increase in median lifespan (% ILS) relative to the untreated control animals and log net change in tumor cell burden following therapy (NCK).

[2] = as above; assay type: in vivo, mice; settings: female, B6D2F1, mouse, in vivo
Description: as §1, §2, §3, §4

[3] = First Time in Human Study of Compound A, monotherapy once every 21 days; assay type: in vivo; settings: once every 21 day schedule, prior study in humans
[4] = cisplatin alone 4 mg/kg, ip q4dx3, first cisplatin study
[5] = cisplatin alone 4 mg/kg, repeat cisplatin study
[6] = 5FU 26 mg/kg alone, ip Days 2, 6, 10
[7] = 5FU 43 mg/kg alone, ip Days 2, 6, 10
[8] = 5FU 72 mg/kg alone, ip Days 2, 6, 10
[9] = 5FU 120 mg/kg alone, ip Days 2, 6, 10
[10] = ip, single agent, ip Days 2, 6, 10, gemcitabine study, read-out: MTD
[11] = ip, single agent, ip q4dx3 Days 2, 6, 10, irinotecan study, read-out: MTD
[12] = Compound A 2.6 mg/kg alone, ip Days 2, 6, 10, 5FU study
[13] = Compound A 4.3 mg/kg alone, ip Days 2, 6, 10, 5FU study
[14] = Compound A alone 4.3 mg/kg (MTD), ip q4dx3, first cisplatin study
[15] = Compound A alone 4.3 mg/kg (MTD), doxorubicin study
[16] = Compound A alone 6 mg/kg (MTD), irinotecan study
[17] = Compound A alone 7.2 mg/kg (MTD), repeat cisplatin study
[18] = Compound A alone 10 mg/kg, gemcitabine study
[19] = doxorubicin alone 12 mg/kg, ip Days 2, 6, 10
[20] = gemcitabine alone 200 mg/kg, ip Days 2, 6, 10
[21] = irinotecan alone 54 mg/kg, ip q4dx3
[22] = irinotecan alone 150 mg/kg (MTD), ip q4dx3

CCCCCOC(=O)Nc1nc(=O)n([C@@H]2O[C@H](C)[C@@H](O)[C@H]2O)cc1F [CAP, Capecitabine, reference compound]
MX-1 tumor growth (MX-1 breast carcinoma; CAP alone 500 and 250 mg/kg, daily for two 5 day cycles with 2 day rest): slight delay in MX-1 tumor growth
MTD (in vivo): 500 mg/kg

N.N.[Cl][Pt][Cl] [Cisplatin, cisplatin, reference compound]
% ILS (increase in life span) [1, 4]: 200%
log cell kill (net cell kill) [1, 4]: 3.7 log
% ILS (increase in life span) [1, 5]: 133%
log cell kill (net cell kill) [1, 5]: 1.7 log

O=c1[nH]cc(F)c(=O)[nH]1 [Compound 5FU, 5-fluorouracil, reference compound]
% ILS [1, 6]: 33%
Net Cell Kill [1, 6]: [0] log
% ILS [1, 7]: 55%
Net Cell Kill [1, 7]: [0] log
Net Cell Kill ([1]; 5FU 43 mg/kg alone, ip Days 2, 6, 10, listed as 5 FU): no log cell kill
% ILS [1, 8]: 44%
Net Cell Kill [1, 8]: [0] log
% ILS [1, 9]: 22%
Net Cell Kill [1, 9]: [0] log
toxicity at dose level ([1]; 5FU 200 mg/kg alone, ip Days 2, 6, 10): Toxic

CS(=O)(=O)O.Cc1ccc(C(=O)N(CCCN)[C@@H](c2nc3cc(Cl)ccc3c(=O)n2Cc2ccccc2)C(C)C)cc1 [Compound A, N-(3-aminopropyl)-N-[(1R)-1-[7-chloro-3,4-dihydro-4-oxo-3-(phenylmethyl)-2-quinazolinyl]-2-methylpropyl]-4-methylbenzamide, mesylate salt]
MTD ([2]; intraperitoneal, increased from 7.2 alone, repeat cisplatin study, read-out: MTD of Compound A in combination with cisplatin): 12 mg/kg
MTD ([2]; ip, single agent, ip Days 2, 6, 10, doxorubicin study, read-out: MTD): 4.3 mg/kg
MTD [2, 10]: ≥ 10 mg/kg
MTD ([2]; ip, single agent, ip q4dx3, 5FU study, read-out: MTD): 7.2 mg/kg
MTD ([2]; ip, single agent, ip q4dx3, first cisplatin study, read-out: MTD): 4.3 mg/kg
MTD ([2]; ip, single agent, ip q4dx3, repeat cisplatin study, read-out: MTD): 7.2 mg/kg
MTD [2, 11]: 6 mg/kg
% ILS [1, 12]: 78%
Net Cell Kill [1, 12]: [0] log
% ILS [1, 13]: 122%
Net Cell Kill [1, 13]: [1.1] log
% ILS ([1]; Compound A 7.2 mg/kg (MTD) alone, ip Days 2, 6, 10, 5FU study): 178%
toxicity at dose level ([1]; Compound A 12 mg/kg alone, ip Days 2, 6, 10, 5FU study): Toxic
toxicity at dose level ([1]; Compound A 20 mg/kg alone, ip Days 2, 6, 10, 5FU study): Toxic
% ILS (increase in life span) [1, 14]: 144%
log cell kill (net cell kill) [1, 14]: 1.8 log
% ILS (increase in life span) [1, 15]: 156%
log cell kill (net cell kill) [1, 15]: 1.3 log
% ILS (increase in life span) [1, 16]: 167%
log cell kill (net cell kill) [1, 16]: 3.0 log
% ILS (increase in life span) [1, 17]: 144%
log cell kill (net cell kill) [1, 17]: 2.2 log
% ILS (increase in life span) [1, 18]: 211%
log cell kill (net cell kill) [1, 18]: 6.2 log
MTD of Compound A in combination versus alone ([1]; combined with 0.86 or 1.44 mg/kg cisplatin, first cisplatin study): higher MTD
MTD [3]: 18 mg/m^2
activity against MX-1 (MX-1 breast carcinoma; Compound A alone at MTD of 10 mg/kg, q4dx3): refractory
MTD (in vivo): 10 mg/kg

COc1cccc2c1C(=O)c1c(O)c3c(c(O)c1C2=O)C[C@@](O)(C(=O)CO)C[C@@H]3O[C@H]1C[C@H](N)[C@H](O)[C@H](C)O1 [Doxorubicin, doxorubicin, reference compound]
% ILS (increase in life span) [1, 19]: 89%
log cell kill (net cell kill) [1, 19]: no log cell kill

Nc1ccn([C@@H]2O[C@H](CO)[C@@H](O)C2(F)F)c(=O)n1 [Gemcitabine, gemcitabine, reference compound]
MTD [2, 10]: ≥ 200 mg/kg
% ILS (increase in life span) [1, 20]: 289%
log cell kill (net cell kill) [1, 20]: > 7.3 log
efficacy at lower doses ([1]; gemcitabine alone at 120 mg/kg or less): less effective

CCc1c2c(nc3ccc(OC(=O)N4CCC(N5CCCCC5)CC4)cc13)-c1cc3c(c(=O)n1C2)COC(=O)[C@]3(O)CC [Irinotecan, irinotecan, reference compound]
MTD [2, 11]: 150 mg/kg
% ILS (increase in life span) [1, 21]: 211%
log cell kill (net cell kill) [1, 21]: 4.8 log
% ILS (increase in life span) [1, 22]: > 450%
log cell kill (net cell kill) [1, 22]: > 6.9 log

Source: patent publication US20070207996A1, “Novel Compositions And Methods Of Treatment” (priority 2004, published 2007)
